Measured values as given in PMC10265003 (Royal Society Open Science, 2023).
Positions of bridges follow the written chain, without caps; N, C: chain ends. Non-standard residues stand in square brackets, D forms with d. Residues, ends and D or L forms follow the SMILES beside them. Chains are numbered I, II in the order given. No end group written: not given here. 1Nal = N[C@@H](Cc1cccc2ccccc12)C(=O)O; 4Abz = Nc1ccc(C(=O)O)cc1; 2Abz = Nc1ccccc1C(=O)O; Ahx = NCCCCCC(=O)O

Assays:
pepsin [1] = experiment: Pepsin dissolved in 0.010 M HCl (pH 2.0); peptides dissolved in H2O-TFA 0.05% (v/v); details: 37°C, up to 3 h
MCF-7 breast cancer line = type: cell-based, human; details: 2 h
Procedure: (§1) The MTT assay was performed in accordance with previous reports. Briefly, the cells were seeded with a complete medium in 96-well plates at a rate of 10 000 cells and 100 µl per well, and adhesion to the plates was allowed for 24 h. Later, the complete medium was removed, and an incomplete medium was added for synchronization for another 24 h. The cells were then incubated at 37°C for 2 h with 100 µl of peptide at the evaluated concentrations (200, 100, 50, 25, 12.5 and 6.25 µg ml^−1). Next, the peptide was removed from the well and 100 µl of incomplete medium with 10% MTT was added and incubated for 4 h. The medium was replaced with 100 µl of isopropanol, and after 30 min of incubation at 37°C, the absorbance was measured at 575 nm. As a negative control, an incomplete culture medium with 10% MTT was used, and as a positive control, cells without MTT treatment were used. The IC50 value was determined from figure 1 (peptide concentration versus per cent cell viability) using a nonlinear regression model with variable slope and GraphPad Prism 9 statistical analysis software.

[2] = RP-HPLC retention time as measure of hydrophobicity; type: physicochemical; details: Chromolith RP-18e, water/ACN with 0.05% TFA, 5-50% B from 1 to 9 min, 2 ml min^−1, 210 nm, used as measure of hydrophobicity
Procedure: The peptides were analysed using a Hitachi Primaide-DAD 1110 chromatograph and a Chromolith RP-18e High Resolution column (100 × 4.1 i.d. mm) (Merck, Darmstadt, Germany). Water containing 0.05% TFA was used as solvent A, and ACN containing 0.05% TFA was used as solvent B. The elution programme used was […] at a flow rate of 2 ml min^−1 and a wavelength of 210 nm. Ten microlitres of each peptide solution was injected at an approximate concentration of […].

[3] = test system: human breast cancer lines MDA-MB-468 and MDA-MB-231; details: 4 mg via intra-tumoural route, cited from earlier work
Procedure: Mice treated with peptide ^26[F] recovered completely after 24 h, and the survival rate was 100% after one week of observation. […] Peptide ^26[F] was inoculated in female mic ...

trypsin = trypsin (Sus scrofa, UniProt P00761)
Procedure: Trypsin (20 μg) was dissolved in 450 µl of the buffer supplied by the manufacturer, and 50 µl was added to each peptide solution, maintaining a protease : peptide ratio of 1 : 100 (w/w). The samples were incubated at 37°C for 24 h. Aliquots were taken at 0, 5, 10, 15 and 20 min, the enzymatic reaction was stopped by adding 1 M HCl, and the mixture was analysed via RP-HPLC and LC-MS. Bovine serum albumin (BSA) and bovine lactoferrin (bLF) were used as the positive control, and the negative control was the peptide in buffer solution without trypsin.

human erythrocytes = type: cell-based
Procedure: Haemolysis assays were performed in accordance with Cárdenas et al.. The blood was donated by healthy volunteers with blood type O^+. First, 5 ml of peripheral blood in EDTA was centrifuged at 500 r.p.m. for 15 min, and the erythrocytes were separated and washed three times with 0.9% saline solution. Then 100 µl of peptide solution (final concentrations of 200 at 6.2 µg ml^−1) was mixed with 100 µl of erythrocytes (2% haematocrit) and incubated at 37°C for 2 h. It was then centrifuged at 2500 r.p.m. for 5 min and the absorbance of the supernatant was measured at 450 nm. Two controls were used; positive control: distilled water, and negative control: saline solution 0.9%.

pepsin [4] = biological target: pepsin (Sus scrofa, UniProt P00791); details: pH 2
Procedure: Pepsin was dissolved in 0.010 M HCl (pH 2.0). An aliquot of 50 µl was added to each peptide solution in a 1 : 100 (w/w) ratio. The peptides were dissolved in H2O-TFA 0.05% (v/v). This was incubated at 37°C for 3 h, aliquots were taken at 0 and 3 h, and the samples were heated for 5 min and then cooled at 4°C for the thermal inactivation of pepsin and characterized via HPLC and LC-MS.

[5] = test system: HEK-293 human kidney cell line; type: cell-based
Procedure: as §1, with “The cells were then incubated at 37°C for 2 h with 100 µl of peptide at the evaluated concentrations (200, 100, 50, 25, 12.5 and 6.25 µg ml^−1).” left out

[6] = test system: human primary fibroblasts; type: cell-based
Excerpt: Rink amide resin, Fmoc-Arg(Pbf)-OH, Fmoc-Trp(Boc)-OH, Fmoc-Gln(Trt)-OH, Fmoc-Phe-OH, Fmoc-Lys(Boc)-OH, Fmoc-Leu-OH, Fmoc-Gly-OH, Fmoc-6-Ahx-OH, Fmoc-Lys(Fmoc)-OH, Triton-X, piperidine, N,N-dimethylformamide (DMF), dichloromethane (DCM), dicyclohexylcarbodiimide (DCC), 1-hydroxy-6-chloro-benzotriazole (6-Cl-HOBt), ninhydrin, potassium cyanide (KCN), ethanol, pyridine, phenol, trifluoroacetic acid (TFA), ethyl ether, triisopropylsilane (TIS), ethanedithiol (EDT), acetonitrile (ACN), methanol (MeOH) and solid phase extraction columns Supelco, Trypsin-EDTA solution and pepsin 2500 units mg^−1 were purchased from Sigma-Aldrich (St Louis, MO, USA). The non-natural amino acids diphenylalanine, 1-naphthyl-phenylalanine, 4-benzoyl-phenylalanine, homophenylalanine (hF), 4-(Fmoc-amino) benzoic acid (4-Abz) and 2-(Fmoc-amino) benzoic acid (2-Abz) were obtained from AAPPTec (Louisville, KY, USA). The cell lines MCF-7, HeLa, HEK-293 were purchased from ATCC (Manassas, VA). The primary cell culture of fibroblasts was obtained from the foreskin by the Laboratory of Cellular Physiology of the National University of Colombia, and the fibroblasts were cultured and frozen. Some vials were thawed and cultured for up to seven passes, since no transformation/immortalization was done. Annexin V and Alexa Fluor 488 conjugate was purchased from Invitrogen (Eugene, Oregon). The DMEM culture medium and trypsin were obtained from Sigma-Aldrich (St Louis, MO, USA). Bovine fetal serum was purchased from Gibco (Waltham, MA, USA). Calcium assay kit and Fluorescein CaspGLOW Active Caspase-8 or Caspase-9 Staining Kit were obtained for BD Biosciences (San Diego, CA, USA) and Invitrogen Thermo Fisher Scientific (Waltham, MA, USA), respectively.
as §1, with “The cells were then incubated at 37°C for 2 h with 100 µl of peptide at the evaluated concentrations (200, 100, 50, 25, 12.5 and 6.25 µg ml^−1).” left out

CD1 mice = experiment: Peptide toxicity in vivo model (Irwin test, survival)
Procedure: Experiment 1. CD1 mice male (eight weeks old, weighing 33–35 g) were housed in groups of six animals per cage for each peptide ^26[F] and ^26[1-Nal]; three mice were inoculated by intraperitoneal via ip, and three mice were inoculated by subcutaneous via sc. Mice inoculated via ip or sc with saline solution were used as control. The peptide was dissolved in saline solution (7 mg ml^−1) and the mice were inoculated only one time with 0.33–0.35 ml (dosage 70 mg kg^−1) via ip or sc. Experiment 2. CD1 mice female (n = 4, eight weeks old, weighing 33–35 g) were inoculated only one time with peptide ^26[F] (dosage 140 mg kg^−1) or ^26[1-Nal] (8.8 to 70 mg kg^−1).
To determine the toxicity of peptides ^26[F] and ^26[1-Nal] in vivo model, a preliminary study was carried out in CD1 male mice. The Irwin test was used to evaluate in qualitative manner the effect of peptide administration over motor functions, behaviour, physiology and pharmacological safety in rodents. This test is used as a first approach to study of the adverse effects generated by a pharmaceutical treatment in an in vivo model in preclinical test.

[7] = test system: HeLa human cervical cancer cell line; type: cell-based; details: 2 h
Procedure: as §1

[8] = ratio of IC50 values, in brackets

Chain of trypsin (P00761 9-231): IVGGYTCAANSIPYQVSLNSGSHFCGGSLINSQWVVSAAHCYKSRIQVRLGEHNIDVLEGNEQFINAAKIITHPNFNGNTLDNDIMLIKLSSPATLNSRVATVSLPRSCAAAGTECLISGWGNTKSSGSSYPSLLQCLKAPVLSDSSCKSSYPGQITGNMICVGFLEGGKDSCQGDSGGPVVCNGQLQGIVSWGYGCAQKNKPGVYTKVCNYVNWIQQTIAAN
Chain of pepsin (Sus scrofa, UniProt P00791) (P00791 60-385): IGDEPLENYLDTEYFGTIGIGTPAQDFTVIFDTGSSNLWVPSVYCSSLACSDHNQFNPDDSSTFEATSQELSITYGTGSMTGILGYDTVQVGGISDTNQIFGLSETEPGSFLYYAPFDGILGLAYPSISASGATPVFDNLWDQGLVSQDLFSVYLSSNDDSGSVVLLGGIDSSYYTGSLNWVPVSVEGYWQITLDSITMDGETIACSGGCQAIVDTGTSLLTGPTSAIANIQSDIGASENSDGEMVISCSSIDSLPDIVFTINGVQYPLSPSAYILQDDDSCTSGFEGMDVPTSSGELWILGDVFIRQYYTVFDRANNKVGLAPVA

Compound: (RRWQWR-hF-KKLG)2-K-Ahx
- not cleaved (pepsin [1]): pepsin treatment for 3 h did not induce proteolytic degradation

Compound: CC(C)C[C@H](NC(=O)[C@H](CCCCN)NC(=O)[C@H](CCCCN)NC(=O)c1ccc(NC(=O)[C@H](Cc2c[nH]c3ccccc23)NC(=O)[C@H](CCC(N)=O)NC(=O)[C@H](Cc2c[nH]c3ccccc23)NC(=O)[C@H](CCCNC(=N)N)NC(=O)[C@@H](N)CCCNC(=N)N)cc1)C(=O)NCC(=O)NCCCC[C@H](NC(=O)CNC(=O)[C@H](CC(C)C)NC(=O)[C@H](CCCCN)NC(=O)[C@H](CCCCN)NC(=O)c1ccc(NC(=O)[C@H](Cc2c[nH]c3ccccc23)NC(=O)[C@H](CCC(N)=O)NC(=O)[C@H](Cc2c[nH]c3ccccc23)NC(=O)[C@H](CCCNC(=N)N)NC(=O)[C@@H](N)CCCNC(=N)N)cc1)C(=O)NCCCCCC(N)=O [^26[4-Abz], (RRWQWR-4-Abz-KKLG)2-K-Ahx] (I: H-RRWQW[4Abz]KKLGK[Ahx]-NH2 / II: H-RRWQW[4Abz]KKLG; amide I:11-II:C; N-terminus assumed)
- IC50 (MCF-7 breast cancer line): 49 µM
- tR [2]: 5.9 min

Compound: CC(C)C[C@H](NC(=O)[C@H](CCCCN)NC(=O)[C@H](CCCCN)NC(=O)c1ccccc1NC(=O)[C@H](Cc1c[nH]c2ccccc12)NC(=O)[C@H](CCC(N)=O)NC(=O)[C@H](Cc1c[nH]c2ccccc12)NC(=O)[C@H](CCCNC(=N)N)NC(=O)[C@@H](N)CCCNC(=N)N)C(=O)NCC(=O)NCCCC[C@H](NC(=O)CNC(=O)[C@H](CC(C)C)NC(=O)[C@H](CCCCN)NC(=O)[C@H](CCCCN)NC(=O)c1ccccc1NC(=O)[C@H](Cc1c[nH]c2ccccc12)NC(=O)[C@H](CCC(N)=O)NC(=O)[C@H](Cc1c[nH]c2ccccc12)NC(=O)[C@H](CCCNC(=N)N)NC(=O)[C@@H](N)CCCNC(=N)N)C(=O)NCCCCCC(N)=O [^26[2-Abz], (RRWQWR-2-Abz-KKLG)2-K-Ahx] (I: H-RRWQW[2Abz]KKLGK[Ahx]-NH2 / II: H-RRWQW[2Abz]KKLG; amide I:11-II:C; N-terminus assumed)
- tR [2]: 5.9 min

Compound: Bovine lactoferricin (FKCRRWQWRMKKLGAPSITCVRRAF; ends and bridges not checked; cysteine pairing not given here; UniProt P24627 36-60, looked up) [LfcinB, 25-amino acid ACP generated by gastric pepsin digestion of bovine lactoferrin]
- safety on administration ([3]; NOD-SCI-gamma mice): safe
- anti-tumoural effect ([3]; xenografts of MDA-MB-468 and MDA-MB-231 in NOD-SCI-gamma mice): had anti-tumoural effect

Compound: CC(C)C[C@H](NC(=O)[C@H](CCCCN)NC(=O)[C@H](CCCCN)NC(=O)[C@H](Cc1cccc2ccccc12)NC(=O)[C@H](CCCNC(=N)N)NC(=O)[C@H](Cc1c[nH]c2ccccc12)NC(=O)[C@H](CCC(N)=O)NC(=O)[C@H](Cc1c[nH]c2ccccc12)NC(=O)[C@H](CCCNC(=N)N)NC(=O)[C@@H](N)CCCNC(=N)N)C(=O)NCC(=O)NCCCC[C@H](NC(=O)CNC(=O)[C@H](CC(C)C)NC(=O)[C@H](CCCCN)NC(=O)[C@H](CCCCN)NC(=O)[C@H](Cc1cccc2ccccc12)NC(=O)[C@H](CCCNC(=N)N)NC(=O)[C@H](Cc1c[nH]c2ccccc12)NC(=O)[C@H](CCC(N)=O)NC(=O)[C@H](Cc1c[nH]c2ccccc12)NC(=O)[C@H](CCCNC(=N)N)NC(=O)[C@@H](N)CCCNC(=N)N)C(=O)NCCCCCC(N)=O [^26[1-Nal], (RRWQWR-1-Nal-KKLG)2-K-Ahx] (I: H-RRWQWR[1Nal]KKLGK[Ahx]-NH2 / II: H-RRWQWR[1Nal]KKLG; amide I:12-II:C)
- proteolytic degradation by trypsin, 10 min (trypsin): less degradation, with the majority being intact dimeric peptide
- proteolytic degradation by trypsin, 3 h (trypsin): three main species, with tR = 3.7, 5.4 min and unaffected peptide tR = 6.4 min
- IC50 (MCF-7 breast cancer line): 14 µM
- IC50 MCF-7 (MCF-7 breast cancer line): 48(14) µg mL^−1
- IC50 erythrocytes (human erythrocytes; 2 h): >200(>58) µg mL^−1
- selectivity index IC50 erythrocytes/IC50 MCF-7 (human erythrocytes; ratio of IC50 values): > 4.1
- selectivity index IC50 erythrocytes/IC50 HeLa (human erythrocytes; [8]): > 3.6
- proteolytic degradation by pepsin (pepsin [4]): unaffected
- IC50 HEK-293 ([5]; 2 h): 86(25) µg mL^−1
- selectivity index IC50 HEK-293/IC50 MCF-7 ([5]; ratio of IC50 values): 1.8
- selectivity index IC50 HEK-293/IC50 HeLa [5, 8]: 1.5
- IC50 fibroblasts ([6]; 2 h): 30(9) µg mL^−1
- selectivity index IC50 fibroblasts/IC50 MCF-7 ([6]; ratio of IC50 values): 0.6
- selectivity index IC50 fibroblasts/IC50 HeLa [6, 8]: 0.5
- observed signs after ip administration (Irwin test) (CD1 mice; experiment 1, male CD1 mice, ip 70 mg kg^−1): motor function decreased 30 min after peptide administration and abdominal contortions were observed
- survival (%) ip (CD1 mice; experiment 1, male CD1 mice, single ip dose 70 mg kg^−1, n = 3, one week of observation): 33%
- survival (%) sc (CD1 mice; experiment 1, male CD1 mice, single sc dose 70 mg kg^−1, n = 3): 100%
- survival (%) ip (CD1 mice; experiment 2, female CD1 mice, single ip dose 8.8 mg kg^−1, n = 3): 100%
- survival (%) ip (CD1 mice; experiment 2, female CD1 mice, single ip dose 17.5 mg kg^−1, n = 3): 100%
- survival (%) ip (CD1 mice; experiment 2, female CD1 mice, single ip dose 35.0 mg kg^−1, n = 3): 100%
- survival (%) ip (CD1 mice; experiment 2, female CD1 mice, single ip dose 70.0 mg kg^−1, n = 3): 100%
- IC50 HeLa [7]: 55(16) µg mL^−1

Compound: (RRWQWR-1-Nal-KKLG)2-K-Ahx
- not cleaved (pepsin [1]): pepsin treatment for 3 h did not induce proteolytic degradation
